Laboratory results reported in patent publication US9593110B2, “Neprilysin inhibitors” (Theravence Biopharma R&D IP, LLC, priority 2014, dated 2017).

Tests used:
[1] = Rat PO cassette assay (oral bioavailability); format: in vivo, Sprague-Dawley rats; details: male, Sprague-Dawley, plasma, single oral gavage vs intravenous dose, 0.5 mg/kg
Source text: Oral bioavailability, or % F, is a measure of the percentage of a drug in an oral dose that actually reaches the systemic circulation. Compound losses can occur due to incomplete formulation dissolution, incomplete absorption due to compound insolubility or instability along the GI, or metabolism in the gut or across the gut wall. The fraction of the dose which reaches the hepatic portal vein must also then pass through the liver before reaching the systemic circulation. Compound metabolism, or “first-pass extraction,” can occur during this initial passage through the liver, and this is an additional potential source of compound loss. Oral bioavailability is calculated as the dose-normalized ratio of drug exposure after an oral dose to that after an intravenous dose, wherein the entire dose is delivered directly to the systemic circulation.
Each cassette study begins with 10 mM DMSO stock solutions of up to 5 different compounds. Typically, compounds are selected such no two compounds dosed in the same cassette have a molecular weight within 5 Da of each other. This simplifies subsequent bioanalysis. Appropriate volumes of each DMSO stock are added into a volume of vehicle (5% sodium bicarbonate, 5% dextrose in H2O) such that the final concentration of each compound is 0.25 mg/mL. Intravenous dosing solutions are sterile-filtered (0.2 μm) prior to dosing.
Pre-cannulated male Sprague-Dawley rats (3 per cassette per route) between 8 and 10 weeks of age were obtained from Harlan Laboratories (Indianapolis, Ind.). Rats received either a single oral gavage or a single intravenous (via lateral tail vein) dose (2 mL/kg) of the dosing solution. The final dose was 0.5 mg/kg. Serial blood samples were harvested via jugular vein cannula at 3 minutes, 15 minutes, 30 minutes, 1 hours, 2 hours, 4 hours, 6 hours, and 24 hours post-dose. Sampling was performed either manually or using automated blood samplers. Samples were collected into microtainer tubes containing EDTA as the anticoagulant and are processed to plasma by refrigerated centrifugation.
Plasma samples were extracted with 3 volumes of MeCN containing a suitable internal standard. Extracts were reconstituted into 3 volumes of water containing 1% formic acid, and analyzed via HPLC-coupled MS/MS. Plasma concentration-time data were analyzed using the Phoenix software (Pharsight Corp., St. Louis, Mo.) to calculate pharmacokinetic parameters.
Compounds of the invention of particular interest were those having a % F>10%, when tested in this assay.

human NEP = human NEP (Homo sapiens (Human), UniProt P08473); experiment: In vitro enzyme inhibition assay at human NEP; details: recombinant human NEP, fluorogenic peptide substrate, 37° C.
Sequence of human NEP (P08473 52-750): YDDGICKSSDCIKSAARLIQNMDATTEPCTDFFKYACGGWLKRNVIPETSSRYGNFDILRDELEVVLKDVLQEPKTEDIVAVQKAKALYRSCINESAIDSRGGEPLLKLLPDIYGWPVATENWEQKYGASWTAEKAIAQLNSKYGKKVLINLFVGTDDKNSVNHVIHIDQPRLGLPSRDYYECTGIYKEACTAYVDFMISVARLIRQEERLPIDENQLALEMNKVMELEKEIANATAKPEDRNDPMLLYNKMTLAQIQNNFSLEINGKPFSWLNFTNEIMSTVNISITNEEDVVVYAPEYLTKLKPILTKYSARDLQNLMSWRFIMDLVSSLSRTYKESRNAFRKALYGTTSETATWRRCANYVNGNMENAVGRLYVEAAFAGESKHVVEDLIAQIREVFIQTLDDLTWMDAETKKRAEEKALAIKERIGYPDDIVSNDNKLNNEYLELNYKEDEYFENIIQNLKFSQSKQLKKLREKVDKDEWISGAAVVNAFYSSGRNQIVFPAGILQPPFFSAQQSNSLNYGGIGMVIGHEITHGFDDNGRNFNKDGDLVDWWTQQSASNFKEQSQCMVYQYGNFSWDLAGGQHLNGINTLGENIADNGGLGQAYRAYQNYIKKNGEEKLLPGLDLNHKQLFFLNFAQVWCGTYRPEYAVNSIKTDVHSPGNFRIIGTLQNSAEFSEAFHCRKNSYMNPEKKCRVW
Protocol: The inhibitory activities of compounds at human and rat neprilysin (EC 3.4.24.11; NEP) and human angiotensin converting enzyme (ACE) were determined using in vitro assays as described below.
The assays were performed in 384-well white opaque plates at 37° C. using the fluorogenic peptide substrates at a concentration of 10 μM in Assay Buffer (NEP: 50 mM HEPES, pH 7.5, 100 mM NaCl, 0.01% polyethylene glycol sorbitan monolaurate (Tween-20), 10 μM ZnSO4; ACE: 50 mM HEPES, pH 7.5, 100 mM NaCl, 0.01% Tween-20, 1 μM ZnSO4).
Test compounds were assayed over the range of concentrations from 10 μM to 20 pM. Test compounds were added to the enzymes and incubated for 30 minute at 37° C. prior to initiating the reaction by the addition of substrate.
Plates were read on a fluorometer with excitation and emission wavelengths set to 320 nm and 405 nm, respectively Inhibition constants were obtained by nonlinear regression of the data using the equation (GraphPad Software, Inc., San Diego, Calif.): v=v0/[1+(I/K′)] where v is the reaction rate, v0 is the uninhibited reaction rate, I is the inhibitor concentration and K′ is the apparent inhibition constant.

| SMILES | bioavailability [1] [%] | pKi (human NEP) | Ki (human NEP; pKi) [nM] |
| --- | --- | --- | --- |
| CCOC[C@H](C[C@@H](Cc1ccc(-c2cc(Cl)ccc2F)cc1)NC(=O)c1cc(O)no1)C(=O)O [Example 7-4, (2S,4S)-5-(5′-Chloro-2′-fluoro-biphenyl-4-yl)-2-ethoxymethyl-4-[(3-hydroxy-isoxazole-5-carbonyl)amino]pentanoic acid] | > 10 | ≧9.0 | – |
| COC[C@H](C[C@@H](Cc1ccc(-c2cc(Cl)ccc2F)cc1)NC(=O)c1ncccn1)C(=O)O [Example 2-13, (2S,4S)-5-(5′-Chloro-2′-fluorobiphenyl-4-yl)-2-methoxymethyl-4-[(pyrimidine-2-carbonyl)amino]pentanoic acid] | > 10 | ≧9.0 | – |
| CCc1cc(C(=O)N[C@H](Cc2ccc(-c3cc(Cl)ccc3F)cc2)C[C@@H](NC(=O)OC)C(=O)O)on1 [Example 29, (2R,4R)-5-(5′-Chloro-2′-fluorobiphenyl-4-yl)-4-[(3-ethylisoxazole-5-carbonyl)amino]-2-methoxycarbonylaminopentanoic Acid] | > 10 | – | ≤ 1 |
| CCOC[C@H](C[C@@H](Cc1ccc(-c2cc(Cl)ccc2F)cc1)NC(=O)c1c[nH]nn1)C(=O)O [Example 7-1, (2S,4S)-5-(5′-Chloro-2′-fluorobiphenyl-4-yl)-2-ethoxymethyl-4-[(1H-[1,2,3]triazole-4-carbonyl)amino]pentanoic acid] | > 10 | ≧9.0 | – |
| COC(=O)N[C@H](C[C@@H](Cc1ccc(-c2cc(Cl)ccc2F)cc1)NC(=O)c1ncc(C)o1)C(=O)O [Example 30-4, (2R,4R)-5-(5′-Chloro-2′-fluorobiphenyl-4-yl)-2-methoxycarbonylamino-4-[(5-methyloxazole-2-carbonyl)amino]pentanoic acid] | > 10 | ≧9.0 | – |
| COC[C@H](C[C@@H](Cc1ccc(-c2cc(Cl)ccc2F)cc1)NC(=O)c1c[nH]nn1)C(=O)O [Example 2-1, (2S,4S)-5-(5′-chloro-2′-fluorobiphenyl-4-yl)-2-methoxymethyl-4-[(1H-[1,2,3]triazole-4-carbonyl)amino]pentanoic acid] | > 10 | ≧9.0 | – |
| COC[C@H](C[C@@H](Cc1ccc(-c2cc(Cl)ccc2F)cc1)NC(=O)c1cocn1)C(=O)O [Example 2-8, (2S,4S)-5-(5′-Chloro-2′-fluorobiphenyl-4-yl)-2-methoxymethyl-4-[(oxazole-4-carbonyl)amino]pentanoic acid] | > 10 | ≧9.0 | – |
| CCc1nc(C(=O)N[C@H](Cc2ccc(-c3cc(Cl)ccc3F)cc2)C[C@@H](NC(=O)OC)C(=O)O)co1 [Example 30-6, (2R,4R)-5-(5′-Chloro-2′-fluorobiphenyl-4-yl)-4-[(2-ethyl-oxazole-4-carbonyl)amino]-2-methoxycarbonylaminopentanoic acid] | > 10 | ≧9.0 | – |
| CCOc1cc(C(=O)N[C@H](Cc2ccc(-c3cc(Cl)ccc3F)cc2)C[C@@H](COC)C(=O)O)n[nH]1 [Example 2-16, (2S,4S)-5-(5′-Chloro-2′-fluorobiphenyl-4-yl)-4-[(5-ethoxy-1H-pyrazole-3-carbonyl)amino]-2-methoxymethylpentanoic acid] | > 10 | ≧9.0 | – |
